Source: US12325697B2 (Nimbus Clio, Inc., priority 2021, dated 2025)

Tests used:
[1] = target: Recombinant human Cbl-b (aa 36-427) (Homo sapiens (Human), UniProt Q13191); assay: Cbl-b Biochemical Assay (TR-FRET); conditions: read-out: TR-FRET hCbl-b IC50
Procedure, shortened: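 IC50 from 4-parameter fit of % inhibition (DMSO max, reference-inhibitor min), duplicate ten-point series. Compound preincubated with 6 nM Cbl-b, then Src-Zap70 (1-2.5 nM)/0.5 mM ATP reaction 60 min RT; EDTA quench with labelled UBE2D2-Ub and streptavidin-terbium, 60 min, HTRF at 520 nm.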

[2] = target: Recombinant human c-Cbl (aa 47-435) (Homo sapiens (Human), UniProt P22681); assay: c-Cbl Biochemical Assay (TR-FRET)
Procedure, shortened: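 TR-FRET binding of UBE2D2-Ub-Bodipy (100 nM) to biotinylated c-Cbl (aa 47-435, 6 nM) via Streptavidin-Tb, measured after c-Cbl activation by Src-Zap70 with 0.5 mM ATP (60-90 min RT, 30 min compound preincubation). Ten-point half-log dilutions, 1% DMSO; IC50 by 4-parameter fit of normalized inhibition.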

Recombinant human Cbl-b (aa 36-427), sequence (Q13191 36-427): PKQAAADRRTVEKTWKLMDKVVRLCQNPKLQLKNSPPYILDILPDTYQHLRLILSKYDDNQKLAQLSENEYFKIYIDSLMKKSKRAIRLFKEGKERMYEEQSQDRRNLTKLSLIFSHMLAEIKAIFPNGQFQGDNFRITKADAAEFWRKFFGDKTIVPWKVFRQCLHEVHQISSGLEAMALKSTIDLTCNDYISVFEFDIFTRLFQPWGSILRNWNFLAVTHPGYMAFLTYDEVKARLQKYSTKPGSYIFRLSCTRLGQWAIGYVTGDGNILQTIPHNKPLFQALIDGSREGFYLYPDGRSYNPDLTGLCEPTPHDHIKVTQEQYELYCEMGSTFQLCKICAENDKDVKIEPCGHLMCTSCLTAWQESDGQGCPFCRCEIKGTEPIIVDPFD
Recombinant human c-Cbl (aa 47-435), sequence (P22681 47-435): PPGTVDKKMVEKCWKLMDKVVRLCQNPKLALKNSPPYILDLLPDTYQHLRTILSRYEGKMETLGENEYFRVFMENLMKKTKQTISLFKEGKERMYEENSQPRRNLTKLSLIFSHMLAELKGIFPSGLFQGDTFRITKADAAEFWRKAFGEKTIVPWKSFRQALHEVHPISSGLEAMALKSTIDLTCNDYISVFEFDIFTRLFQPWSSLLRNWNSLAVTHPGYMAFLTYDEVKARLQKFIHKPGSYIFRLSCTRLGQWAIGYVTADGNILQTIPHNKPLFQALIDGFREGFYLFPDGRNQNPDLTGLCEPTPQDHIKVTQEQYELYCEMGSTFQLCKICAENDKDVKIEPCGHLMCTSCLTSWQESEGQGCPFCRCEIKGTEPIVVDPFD

SMILES	IC50 [1]	IC50 [2]
Cn1cnnc1-c1cc(C#N)ccc1-c1cc(C2CC2)nc(N2Cc3c(F)cc(CN4C[C@@H]5C[C@H]4CO5)cc3C2=O)c1 [AKR-3, 4-(2-Cyclopropyl-6-{4-fluoro-6-[(1S,4S)-2-oxa-5-azabicyclo[2.2.1]heptan-5-ylmethyl]-1-oxo-3H-isoindol-2-yl}pyridin-4-yl)-3-(4-methyl-1,2,4-triazol-3-yl)benzonitrile]	≤ 200 nM	≤ 200 nM
Cn1cnnc1-c1cc(C#N)ccc1-c1cc(C2CC2)nc(N2Cc3ccc(CNCC4CCC4)cc3C2=O)c1 [AIA-2, 4-[2-(6-{[(Cyclobutylmethyl)amino]methyl}-1-oxo-3H-isoindol-2-yl)-6-cyclopropylpyridin-4-yl]-3-(4-methyl-1,2,4-triazol-3-yl)benzonitrile]	≤ 200 nM	≤ 200 nM
COC[C@@H]1CCCN1Cc1cc(F)c2c(c1)C(=O)N(c1cc(-c3ccc(C#N)cc3-c3nncn3C)cc(C3CC3)n1)C2 [AOY-2, (S)-4-(2-Cyclopropyl-6-(4-fluoro-6-((2-(methoxymethyl)pyrrolidin-1-yl)methyl)-1-oxoisoindolin-2-yl)pyridin-4-yl)-3-(4-methyl-4H-1,2,4-triazol-3-yl)benzonitrile]	≤ 200 nM	≤ 200 nM
CN(Cc1ccc2c(c1)C(=O)N(c1cc(-c3ccc(C#N)cc3-c3nncn3C)cc(C3CC3)n1)C2)CC1CC1 [AIX-2, 4-[2-Cyclopropyl-6-(6-{[(cyclopropylmethyl)(methyl)amino]methyl}-1-oxo-3H-isoindol-2-yl)pyridin-4-yl]-3-(4-methyl-1,2,4-triazol-3-yl)benzonitrile]	≤ 200 nM	≤ 200 nM
Cn1cnnc1-c1cc(F)ccc1-c1cc(C2CC2)nc(N2Cc3cc(Cl)c(CN[C@@H]4CCC[C@@H]4O)cc3C2=O)c1 [ANR-2, 5-Chloro-2-{6-cyclopropyl-4-[4-fluoro-2-(4-methyl-1,2,4-triazol-3-yl)phenyl]pyridin-2-yl}-6-({[(1R,2S)-2-hydroxycyclopentyl]amino}methyl)-3H-isoindol-1-one]	≤ 200 nM	≤ 200 nM
C[C@@H](NCc1ccc2c(c1)C(=O)N(c1cc(-c3ccc(C#N)cc3-c3nncn3C)cc(C3CC3)n1)C2)C1CCC1 [AOJ-2, 4-{2-[6-({[(1R)-1-Cyclobutylethyl]amino}methyl)-1-oxo-3H-isoindol-2-yl]-6-cyclopropylpyridin-4-yl}-3-(4-methyl-1,2,4-triazol-3-yl)benzonitrile]	≤ 200 nM	≤ 200 nM
Cn1cnnc1-c1cc(C#N)ccc1-c1cc(C2CC2)nc(N2Cc3ccc(CNC[C@H]4CCOC4)cc3C2=O)c1 [ANZ-2, 4-{2-Cyclopropyl-6-[1-oxo-6-({[(3R)-oxolan-3-ylmethyl]amino}methyl)-3H-isoindol-2-yl]pyridin-4-yl}-3-(4-methyl-1,2,4-triazol-3-yl)benzonitrile]	≤ 200 nM	≤ 200 nM
C[C@@H](NCC1CCC1)c1ccc2c(c1)C(=O)N(c1cc(-c3ccc(C#N)cc3-c3nncn3C)cc(C3CC3)n1)C2 [AKA-1, (R)-4-(2-(6-(1-((Cyclobutylmethyl)amino)ethyl)-1-oxoisoindolin-2-yl)-6-cyclopropylpyridin-4-yl)-3-(4-methyl-4H-1,2,4-triazol-3-yl)benzonitrile]	≤ 200 nM	≤ 200 nM
Cn1cnnc1-c1cc(C#N)ccc1-c1cc(C2CC2)nc(N2Cc3ccc(CN4CCC(F)(F)CC4)cc3C2=O)c1 [ALU-2, 4-(2-Cyclopropyl-6-{6-[(4,4-difluoropiperidin-1-yl)methyl]-1-oxo-3H-isoindol-2-yl}pyridin-4-yl)-3-(4-methyl-1,2,4-triazol-3-yl)benzonitrile]	≤ 200 nM	≤ 200 nM
Cn1cnnc1-c1ccccc1-c1cc(N2Cc3c(cccc3C(F)(F)F)C2=O)cc2cc[nH]c12 [AHY-5, 2-{7-[2-(4-Methyl-1,2,4-triazol-3-yl)phenyl]-1H-indol-5-yl}-4-(trifluoromethyl)-3H-isoindol-1-one]	10000 to 50000 nM	10000 to 50000 nM
C[C@H]1CCCN(Cc2cc(F)c3c(c2)C(=O)N(c2cc(-c4ccc(C#N)cc4-c4nncn4C)cc(C4CC4)n2)C3)C1 [AKY-1, 4-[2-Cyclopropyl-6-(4-fluoro-6-{[(3S)-3-methylpiperidin-1-yl]methyl}-1-oxo-3H-isoindol-2-yl)pyridin-4-yl]-3-(4-methyl-1,2,4-triazol-3-yl)benzonitrile]	≤ 200 nM	≤ 200 nM
Cn1cnnc1-c1cc(C#N)ccc1-c1cc(C2CC2)nc(N2Cc3cnc(CO)cc3C2=O)c1 [ALE-7, 4-{2-Cyclopropyl-6-[6-(hydroxymethyl)-1-oxo-3H-pyrrolo[3,4-c]pyridin-2-yl]pyridin-4-yl}-3-(4-methyl-1,2,4-triazol-3-yl)benzonitrile]	200 to 1000 nM	≤ 200 nM
Cn1cnnc1-c1cc(C#N)ccc1-c1cc(C2CC2)nc(N2Cc3c(F)cc(CN4CCC[C@](C)(O)C4)cc3C2=O)c1 [AMR-2, 4-[2-Cyclopropyl-6-(4-fluoro-6-{[(3S)-3-hydroxy-3-methylpiperidin-1-yl]methyl}-1-oxo-3H-isoindol-2-yl)pyridin-4-yl]-3-(4-methyl-1,2,4-triazol-3-yl)benzonitrile]	≤ 200 nM	≤ 200 nM
C[C@@H](NCc1ccc2c(c1)C(=O)N(c1cc(-c3ccc(C#N)cc3-c3nncn3C)cc(C3CC3)n1)C2)C1COC1 [ANJ-2, (R)-4-(2-Cyclopropyl-6-(6-(((1-(oxetan-3-yl)ethyl)amino)methyl)-1-oxoisoindolin-2-yl)pyridin-4-yl)-3-(4-methyl-4H-1,2,4-triazol-3-yl)benzonitrile]	≤ 200 nM	≤ 200 nM
Cn1cnnc1-c1cc(C#N)ccc1-c1cc(C2CC2)nc(N2Cc3c(F)cc(CNCC(F)(F)F)cc3C2=O)c1 [ALW-1, -[2-Cyclopropyl-6-(4-fluoro-1-oxo-6-{[(2,2,2-trifluoroethyl)amino]methyl}-3H-isoindol-2-yl)pyridin-4-yl]-3-(4-methyl-1,2,4-triazol-3-yl)benzonitrile]	≤ 200 nM	≤ 200 nM
C[C@H](NC1COC1)c1ccc2c(c1)C(=O)N(c1cc(-c3ccc(C#N)cc3-c3nncn3C)cc(C3CC3)n1)C2 [AOB-2, (S)-4-(2-Cyclopropyl-6-(6-(1-(oxetan-3-ylamino)ethyl)-1-oxoisoindolin-2-yl)pyridin-4-yl)-3-(4-methyl-4H-1,2,4-triazol-3-yl)benzonitrile]	≤ 200 nM	≤ 200 nM
Cn1cnnc1-c1cc(F)cc(F)c1-c1cc(C2CC2)nc(N2Cc3ccc(CNCC4(O)CCC4)cc3C2=O)c1 [AII-9, 2-{6-Cyclopropyl-4-[2,4-difluoro-6-(4-methyl-1,2,4-triazol-3-yl)phenyl]pyridin-2-yl}-6-({[(1-hydroxycyclobutyl)methyl]amino}methyl)-3H-isoindol-1-one]	≤ 200 nM	≤ 200 nM
Cn1cnnc1-c1cc(C#N)ccc1-c1cc(C2CC2)nc(N2Cc3c(F)cc(CN4CC[C@@H]5C[C@@H]54)cc3C2=O)c1 [AMY-1, 4-(2-{6-[(1S,5R)-2-Azabicyclo[3.1.0]hexan-2-ylmethyl]-4-fluoro-1-oxo-3H-isoindol-2-yl}-6-cyclopropylpyridin-4-yl)-3-(4-methyl-1,2,4-triazol-3-yl)benzonitrile]	≤ 200 nM	≤ 200 nM
CCOc1cc(-c2ccc(C#N)cc2-c2nncn2C)cc(N2Cc3ccc(CNCCOC)cc3C2=O)n1 [AHS-2, 4-(2-Ethoxy-6-(6-(((2-methoxyethyl)amino)methyl)-1-oxoisoindolin-2-yl)pyridin-4-yl)-3-(4-methyl-4H-1,2,4-triazol-3-yl)benzonitrile]	≤ 200 nM	≤ 200 nM
CN1CCC[C@H]1COCc1cc2c(c(C(F)(F)F)c1)CN(c1cc(-c3ccc(F)cc3-c3nncn3C)cc(C3CC3)n1)C2=O [AHR-4, (S)-2-(6-Cyclopropyl-4-(4-fluoro-2-(4-methyl-4H-1,2,4-triazol-3-yl)phenyl)pyridin-2-yl)-6-(((1-methylpyrrolidin-2-yl)methoxy)methyl)-4-(trifluoromethyl)isoindolin-1-one]	≤ 200 nM	≤ 200 nM
CN1CCC[C@@H]1COCc1cc2c(c(C(F)(F)F)c1)CN(c1cc(-c3ccc(F)cc3-c3nncn3C)cc(C3CC3)n1)C2=O [AHO-4, 2-{6-Cyclopropyl-4-[4-fluoro-2-(4-methyl-1,2,4-triazol-3-yl)phenyl]pyridin-2-yl}-6-({[(2R)-1-methylpyrrolidin-2-yl]methoxy}methyl)-4-(trifluoromethyl)-3H-isoindol-1-one]	≤ 200 nM	≤ 200 nM
Cn1cnnc1-c1cc(C#N)ccc1-c1cc(C2CC2)nc(N2Cc3ccc(CNCC4(F)CCC4)cc3C2=O)c1 [AJX-1, 4-{2-Cyclopropyl-6-[6-({[(1-fluorocyclobutyl)methyl]amino}methyl)-1-oxo-3H-isoindol-2-yl]pyridin-4-yl}-3-(4-methyl-1,2,4-triazol-3-yl)benzonitrile]	≤ 200 nM	≤ 200 nM
Cn1cnnc1-c1cc(C#N)ccc1-c1cc(C2CC2)nc(N2Cc3c(cc(CNCCOC(F)(F)F)c(F)c3F)C2=O)c1 [ALY-2, 4-{2-Cyclopropyl-6-[4,5-difluoro-1-oxo-6-({[2-(trifluoromethoxy)ethyl]amino}methyl)-3H-isoindol-2-yl]pyridin-4-yl}-3-(4-methyl-1,2,4-triazol-3-yl)benzonitrile]	≤ 200 nM	≤ 200 nM
Cn1cnnc1-c1cc(C#N)ccc1-c1cc(C2CC2)cc(N2Cc3ccc(CO)cc3C2=O)c1 [AJP-7, 3′-Cyclopropyl-5′-(6-(hydroxymethyl)-1-oxoisoindolin-2-yl)-2-(4-methyl-4H-1,2,4-triazol-3-yl)-[1,1′-biphenyl]-4-carbonitrile]	200 to 1000 nM	1000 to 10000 nM
